According to patent US5969138A, “Pyrrolidinone derivatives” (Mitsui Chemicals, Inc., priority 1996, dated 1999):

What was measured:
[1] = Safety: simple acute toxicity for a mouse; assay type: in vivo
Method: Evaluation Example 8 (Safety)
For the experiment, male Std:ddY mice aged 5 weeks were used. The mice were weighed, and then calmed in an observation cage for more than 1 hour. To the mice, a test drug was orally administered in a dose of 300 mg/kg to observe them for general symptoms until 2 hours.

Blood kinetics = assay type: in vivo, dog (male beagle); conditions: 10 mg/kg, plasma; for Cmax / half-life: beagle dog; for Cmax: HPLC; for bioavailability: dog, po, read-out: Extent of Bioavailability; for half-life: estimated from intravenous administration
Method: Evaluation Example 7 (Blood kinetics)
For the experiment, male beagle dogs were employed. A test drug was intravenously or orally administered in a dose of 10 mg/kg. Blood samples were collected at 0.25, 0.5, 1, 2, 4, 6 and 24 hours after administering the test drug, and the samples were centrifuged to separate plasma, for which a plasma level of the test drug was determined by HPLC. Half-life of the test drug in blood was estimated from the results at the intravenous administration. An extent of bioavailability is expressed as a rate of AUC at the oral administration to AUC at the intravenous administration.

[2] = system: head weaving behavior induced by a receptor agonist SKF-10047; experiment: Persistence of anti-SKF effect (SKF-10047 4 hours after test drug); assay type: in vivo, mouse (male ddY); conditions: mouse, oral, SKF-10047 20 mg/kg s.c. 4 hours after test drug
Method: Evaluation Example 5 (Persistence of anti-SKF effect) Procedure
(§1) Persistence of antipsychotic activity for a test drug was studied by means of head weaving behavior induced by a receptor agonist SKF-10047 for a mouse. For the experiment were used 10 male ddY mice aged 5 weeks (Nippon SLC) per a group. The mice were placed in a measuring cage and calmed 1 hour before the initiation of the test. To the mice was orally administered a test drug and after 4 hours was subcutaneously administered SKF-10047 in a dose of 20 mg/kg. After 20 min, head weaving was counted for 10 min.

[3] = system: reverse tolerance development to methamphetamine (stereotyped behavior); experiment: Effect on reverse tolerance development due to repetitive administration of methamphetamine; assay type: in vivo, rat (male Std:Wistar(ST)); conditions: rat
Method: Evaluation Example 6 (Effect to reverse tolerance development due to repetitive administration of methamphetamine) For the experiment, male Std:Wistar(ST) rat (Nippon SLC) aged 5 weeks were used. A test drug, the compound of formula (IV) described in JP-A 7-252219 or the compound of formula (V) described in JP-A 9-40667 was dissolved in purified water or 0.5% C.M.C./saline. Methamphetamine (mAMP) was dissolved in saline. Dosage volume was 1 mL/kg body weight.
The drugs were repetitively administered for 10 days with a regimen that to a rat, a test drug was orally or intraperitoneally administered and after 60 min mAMP was intraperitoneally administered in a dose of 2 mg/kg. To a normal group, solvent alone was administered in place of the combination of the test drug and mAMP. To a control group, solvent was orally or intraperitoneally administered, and then intraperitoneally mAMP was additionally administered.
After the repetitive administration, there was provided a withdrawal period for 7 days during which the test drug or mAMP was not administered. After the withdrawal, the test drug was discontinued and mAMP was administered in a dose of 2 mg/kg, and then stereotyped behavior of the animal was observed.
After administering mAMP, stereotyped behavior was rated in accordance with the following scale, for 1 min every 10 min until 60 min.
The results are expressed as an inhibition (%) of reverse tolerance development calculated from the following equation, using a total score for six minutes: Inhibition of reverse tolerance development (%)=100-A […]
wherein A represents a value calculated from the following equation:
A=[{(Score for the test drug group)-(Score for the normal group)}/{(Score for the control group)-(Score for the normal group)}]×100

[4] = system: head weaving behavior induced by phencyclidine (PCP); experiment: Anti-PCP effect: inhibition of phencyclidine-induced head weaving; assay type: in vivo, rat (male Wistar(ST)); conditions: oral treatment before 60 min, PCP 7.5 mg/kg i.p.; for ED50: Rattus norvegicus, po, 1 h; for ED50 Anti-PCP: rat, 60 min
Method: Evaluation Example 4 (Anti-PCP effect)
Antipsychotic activity for a test drug was studied by means of head weaving behavior induced by phencyclidine (PCP) for a rat. For the experiment were used male Wistar(ST) rats aged 4weeks (Nippon SLC). The rats were placed in a measuring cage and calmed 1 hour before the initiation of the test. To the rats was orally administered a test drug and after 60 min was intraperitoneally administered PCP in a dose of 7.5 mg/kg. After 20 min, head weaving was counted for 10 min. Efficacy of the drug was evaluated by determining an inhibition (%) compared with the control group from the average of the scores of the test-drug groups, and then estimating a ED50 value.

[5] = system: head weaving behavior induced by a σ-receptor agonist SKF-10047; experiment: Anti-SKF effect: inhibition of SKF-10047-induced head weaving; assay type: in vivo, mouse (male ddY); conditions: 1 h; mouse, oral treatment before 60 min; SKF-10047 20 mg/kg s.c.
Method: Evaluation Example 3 (Anti-SKF effect)
as §1, with “Antipsychotic” for “Persistence of antipsychotic”, “σ-receptor” for “receptor”, “60 min” for “4 hours”

sigma receptor = conditions: background; cited from earlier work
D2 receptor = biological target: T1, D2 receptor (Rattus norvegicus, UniProt P61169); experiment: Radioreceptor assay for D2 receptor (3H-spiperone, cerebral striatal homogenate); assay type: binding; conditions: read-out: Affinity for a receptor, Ki D2
T1 construct: from tissue; host or cells: rat cerebral striatal homogenate
T1 sequence (P61169 whole entry): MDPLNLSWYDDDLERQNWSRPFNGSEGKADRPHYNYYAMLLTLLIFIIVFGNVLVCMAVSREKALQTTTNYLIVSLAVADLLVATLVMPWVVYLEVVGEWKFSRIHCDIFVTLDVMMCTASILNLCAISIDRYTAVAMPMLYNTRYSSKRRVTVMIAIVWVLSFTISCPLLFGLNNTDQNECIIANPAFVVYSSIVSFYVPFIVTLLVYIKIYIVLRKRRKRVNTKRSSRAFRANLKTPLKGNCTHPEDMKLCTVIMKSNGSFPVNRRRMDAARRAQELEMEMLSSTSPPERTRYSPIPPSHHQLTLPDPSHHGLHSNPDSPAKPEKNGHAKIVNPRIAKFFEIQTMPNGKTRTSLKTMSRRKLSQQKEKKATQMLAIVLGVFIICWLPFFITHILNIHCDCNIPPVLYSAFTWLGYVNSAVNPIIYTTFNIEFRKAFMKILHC
Method: Evaluation Example 2 (Radioreceptor assay for D2 receptor) ^3 H-spiperone (Amersham) and a test drug were incubated with a homogenate of rat cerebral striatal site as described in D. R. Burt et al., Proc.Natl.Acad.Sci.U.S.A. 72:4655 (1975), and Ki value was determined as described in the above r radioreceptor assay.

σ1 receptor = biological target: T2, σ1 receptor (Cavia porcellus, UniProt Q60492); experiment: Radioreceptor assay for a σ1 receptor (3H-(+)pentazocine binding, whole brain P2 fraction); conditions: guinea pig brain P2 fraction, 3 nM 3H-(+)pentazocine, room temperature, 2 hours; read-out: Affinity for a receptor, Ki σ1
T2 construct: prepared from a whole brain of a guinea pig without cerebellum and medulla; from tissue; host or cells: P2 fraction of guinea pig whole brain without cerebellum and medulla
T2 sequence (Q60492 whole entry): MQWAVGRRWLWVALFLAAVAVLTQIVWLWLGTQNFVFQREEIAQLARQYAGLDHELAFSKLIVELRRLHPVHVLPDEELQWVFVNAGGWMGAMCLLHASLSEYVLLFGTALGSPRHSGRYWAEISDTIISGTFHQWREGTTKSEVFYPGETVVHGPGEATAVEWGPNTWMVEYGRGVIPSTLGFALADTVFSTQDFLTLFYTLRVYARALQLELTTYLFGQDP

[6] = 300 mg/kg oral, observed until 2 hours

Compound | Convulsion/Treatment [1, 6] | ED50 [4] [mg/kg] | ED50 [5] [mg/kg] | Ki (D2 receptor) [nM] | Ki (σ1 receptor) [nM] | other results
COC1CCN(C[C@H]2CCN(c3ccc(Cl)cc3)C2=O)CC1 [Compd. of formula (V), reference compound] | 1/3 |  |  |  |  | Death/Treatment [1, 6]: 0/3; Cmax (Blood kinetics): 460 ng/mL; bioavailability (Blood kinetics): 64.3%; half-life (Blood kinetics): 1.5 h; ED50 [2]: 23.2 mg/kg; Inhibition of reverse tolerance ([3]; 10.0 mg/kg intraperitoneal): 81.7%; Inhibition of reverse tolerance ([3]; 30.0 mg/kg intraperitoneal): 87.8%
CCCCN1CCN(CC2CCN(c3cccc(C(F)(F)F)c3)C2=O)CC1 (stereo not shown) [Compound of formula (IV), reference compound] | 5/5 | 11 | 14 |  |  | Death/Treatment [1, 6]: 5/5; ED50 [2]: > 100 mg/kg; Inhibition of reverse tolerance ([3]; 30.0 mg/kg intraperitoneal): 92.9%
C[C@@H]1CN(CCCn2c3ccccc3c3ccccc32)C[C@H](C)N1 [Rimcazole, reference compound] |  |  |  | 11600 |  | affinity or specificity to a sigma receptor (sigma receptor): inadequate affinity or specificity to a sigma receptor
COCCN1CCN(CC2CCN(c3ccc(Cl)cc3)C2=O)CC1 (stereo not shown) [compound 2] | 0/6 | 1.3 | 2.1 | > 3300 | 85 | Death/Treatment ([1]; in vivo, po, 300 mg/kg): 0/6
CCOCCN1CCN(CC2CCN(c3ccc(Cl)cc3)C2=O)CC1 (stereo not shown) [compound 8] | 0/3 |  |  | > 3300 | 14 | Death/Treatment ([1]; in vivo, po, 300 mg/kg): 0/3
C#CCOCCN1CCN(CC2CCN(c3ccc(Cl)cc3)C2=O)CC1 (stereo not shown) [compound 10] |  |  |  | > 3300 | 10 | 
COCCN1CCN(CC2CCN(c3ccc(Br)cc3)C2=O)CC1 (stereo not shown) [compound 16] | 0/5 | 1.9 | 0.52 |  |  | Death/Treatment ([1]; in vivo, po, 300 mg/kg): 0/5
COCCN1CCN(CC2CCN(c3cccc(Br)c3)C2=O)CC1 (stereo not shown) [compound 18] |  |  |  | > 2800 | 7.5 | 
COCCN1CCN(C[C@H]2CCN(c3ccc(Cl)cc3)C2=O)CC1 [compound 21] | 0/4 | 0.75 | 0.77 | > 3900 | 72 | Death/Treatment [1, 6]: 0/4; Cmax (Blood kinetics): 1520 ng/mL; bioavailability (Blood kinetics): 83.1%; half-life (Blood kinetics): 3.5 h; ED50 [2]: 3.19 mg/kg; Inhibition of reverse tolerance ([3]; 7.5 mg/kg oral): 81.0%; Inhibition of reverse tolerance ([3]; 15.0 mg/kg oral): 93.9%
COCCN1CCN(C[C@H]2CCN(c3ccc(Cl)cc3)C2=O)CC1 [compound 37] |  |  |  |  |  | ED50 Anti-PCP [4]: 1.15 mg/kg
COCCN1CCN(C[C@H]2CCN(c3ccc(Cl)cc3)C2=O)CC1 [compound 38] |  |  |  |  |  | ED50 Anti-PCP [4]: 1.48 mg/kg
COCCN1CCN(C[C@H]2CCN(c3ccc(Cl)cc3)C2=O)CC1 [compound 39] |  |  |  |  |  | ED50 Anti-PCP [4]: 1.08 mg/kg
